Laboratory results as given in US20080220416A1, “Compositions for Inhibiting Cell Growth and Inducing Apoptosis in Cancer Cells and Methods of Use Thereof” (THE BOARD OF TRUSTEES OF THE UNIVERSITY OF ILLINOI, priority 2004, published 2008).

System: Notch-1
Experiment: Notch-1 siRNA in CaSki cells, Notch-1 and Notch-4 Western blot
Type: cell-based, human
Protocol: The human papilloma virus (HPV)-positive human cervical cancer cell line CaSki was obtained from ATCC (Rockville, Md.) and cultured in DMEM medium with 10% FBS. Double-stranded synthetic 21-mer RNA oligonucleotides (siRNAs) were purchased from Dharmacon (Lafayette, Colo.). […] Sequence specificity was determined by BLAST searches for the uniqueness. Transfection of CaSki human cervical cancer cells with siRNAs (200 nM siRNA oligos/60 mm dish) was performed by using Oligofectamine Transfection Reagents (InVitrogen) according to manufacturer's instructions.
At 24 and 48 hours after transfection with Notch-1 siRNA or scrambled control siRNA, the CaSki cells were assayed for Notch-1 and Notch-4 expression by Western blotting. Immunoblotting was performed using antibodies to Notch-1 (C-20), and Notch-4 (H-225) from Santa Cruz Biotechnology (Santa Cruz, Calif.). Secondary anti-goat, anti-mouse, anti-rabbit and anti-rat antibodies (IgG-HR1) were purchased from Vector Laboratories (Burlingame, Calif.), Santa Cruz Biotechnology and Amersham Biosciences. For Western blot analysis, equal amounts of protein extracted from each sample (30 μg) were loaded into pre-cast 7% NuPAGE Tris-acetate gels or 4-12% NuPAGE Bis-tris gels (Invitrogen). Proteins were separated by SDS-PAGE and transferred to polyvinylidene difluoride membranes (Bio-Rad, Hercules, Calif.) using Invitrogen's buffering system. […]

## 5′-AAGTGTCTGAGGCCAGCAAGA-3′ [Notch-1 siRNA]
200 nM siRNA, 24 and 48 hours after transfection
  Notch-1 signaling: effective in genetically inhibiting Notch-1 signaling
Data not shown
  Notch-4 levels: did not effect levels of Notch-4
